{"source": "patent US9371304B2", "about": "“Compound separated from monascus-fermented rice,the preparation method and uses thereof” (Beijing Peking University WBL Biotech Co. Ltd, priority 2011, dated 2016)", "molecular_target": "T1, HMG-CoA reductase (microsomes of rat liver) (Rattus norvegicus, UniProt P51639)", "T1 construct": "from tissue; host or cells: rat liver microsomes", "T1 sequence (P51639 1-887)": "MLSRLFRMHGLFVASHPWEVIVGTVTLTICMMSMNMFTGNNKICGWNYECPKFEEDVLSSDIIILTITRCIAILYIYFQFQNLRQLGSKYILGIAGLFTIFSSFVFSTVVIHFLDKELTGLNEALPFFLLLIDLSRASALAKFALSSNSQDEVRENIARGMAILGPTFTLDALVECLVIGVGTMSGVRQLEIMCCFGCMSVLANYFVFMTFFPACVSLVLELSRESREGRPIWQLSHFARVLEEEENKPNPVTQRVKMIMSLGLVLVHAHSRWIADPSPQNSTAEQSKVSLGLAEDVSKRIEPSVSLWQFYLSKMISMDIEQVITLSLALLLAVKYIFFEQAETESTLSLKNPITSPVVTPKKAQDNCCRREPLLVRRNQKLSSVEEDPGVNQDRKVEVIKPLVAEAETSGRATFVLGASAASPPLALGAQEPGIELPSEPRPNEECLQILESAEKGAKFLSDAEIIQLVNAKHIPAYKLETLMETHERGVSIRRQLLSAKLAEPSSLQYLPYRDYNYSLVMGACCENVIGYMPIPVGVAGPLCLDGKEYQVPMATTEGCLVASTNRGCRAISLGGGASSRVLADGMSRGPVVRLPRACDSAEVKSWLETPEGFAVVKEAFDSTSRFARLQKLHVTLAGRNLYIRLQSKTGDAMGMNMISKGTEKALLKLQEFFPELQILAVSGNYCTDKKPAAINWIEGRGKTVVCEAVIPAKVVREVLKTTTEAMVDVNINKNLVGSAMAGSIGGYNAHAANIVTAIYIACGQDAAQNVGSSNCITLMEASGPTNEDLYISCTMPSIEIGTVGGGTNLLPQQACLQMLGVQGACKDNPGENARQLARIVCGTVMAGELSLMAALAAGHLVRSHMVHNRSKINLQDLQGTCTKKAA", "assay": "Test of inhibiting activity of HMG-CoA reductase (rate of decline of OD340)", "format": "biochemical", "details": "for Slope (rate of decline of OD340 within 5 min): blank control slope 9.971", "procedure": "1. Experimental Materials\nThe compound of Formula II prepared according to Example 1.\nmonacolin L (purchased or prepared according to the method of the contents of the present invention)\nStandard Sample of Lovastatin (Purchased from Sigma)\nMicrosomes of rat liver (HMG-CoA reductase) were purchased, or prepared according to the following method: liver of a male rat was taken out, washed with KESD buffering solution, then centrifuged at 1,200 g for 15 min, the supernatant was taken out, and then centrifuged at 105,000 g for 90 min twice, and a centrifugation precipitate was collected. The centrifugation precipitate was added with 8.3% glycerol, heated with 37° C. bath for 1 h. The microsomes of rat liver were purified with saturated ammonium sulfate and the 33-50% purified fraction was collected. The obtained microsomes of rat liver were stored in refrigerator at −80° C.\nPotassium chloride, potassium dihydrogen phosphate, ethylene diamine tetraacetic acid, dithiothreitol (all purchased from Beijing Chemical Reagent Co., Ltd.)\n[…] (purchased from Merck) 3-hydroxy-3-methylglutaryl coenzyme A (HMG-CoA) and cremophore EL (purchased from Sigma).\nThe compound as prepared according to Example 1 was dissolved with 50% cremophore EL ethanol solution, and the concentration was 2 mg/mL; the total volume of the system was determined and it was 250 μL, and the concentration of each component was: potassium chloride 200 mM, potassium dihydrogen phosphate 160 mM, ethylene diamine tetraacetic acid 4 mM, dithiothreitol 10 mM, concentrations of two substrates, nicotinamide adenine dinucleotide and 3-hydroxy-3-methylglutaryl coenzyme A, 200 μM and 50 μM separately, pH6.8, addition of enzyme 30 μL, enzyme inhibitor 5 μL, blank control group 5 μL (solvent for dissolving sample). The dynamic change of OD340 was detected with Versamax ELIASA at 37° C. The rate of decline (represented with slope value) of OD340 within 5 min was used to evaluate the activity of HMG-CoA reductase, and then to evaluate the activity of enzyme inhibitor.", "data": [{"smiles": "CC[C@H](C)C(=O)O[C@H]1C[C@@H](C)C=C2C=C[C@H](C)[C@H](CC[C@@H]3C[C@@H](O)CC(=O)O3)[C@H]21", "note": "[Lovastatin]", "values": [{"measurement": "Slope (rate of decline of OD340 within 5 min)", "setting": "final concentration 34 μg/mL, 37° C., pH6.8", "result": 6.022}, {"measurement": "inhibition at 34 µg/mL", "setting": "pH 6.8, final concentration 34 μg/mL, 37° C., pH6.8", "result": 39.6, "unit": "%"}]}, {"smiles": "CC1C=C2C=CC(C)C(CCC3CC(O)CC(=O)O3)C2CC1", "note": "(stereo not shown) [monacolin L]", "values": [{"measurement": "Slope (rate of decline of OD340 within 5 min)", "setting": "final concentration 30 μg/mL, 37° C., pH6.8", "result": 7.279}, {"measurement": "inhibition at 30 µg/mL", "setting": "pH 6.8, final concentration 30 μg/mL, 37° C., pH6.8", "result": 27, "unit": "%"}]}, {"smiles": "CC1C=C2C=CC(C)C(CCC3CC=CC(=O)O3)C2CC1", "note": "(stereo not shown) [6-(2-(2,6-dimethyl-1,2,6,7,8,8a-hexahydronaphthalen-1-yl)ethyl)-5,6-dihydropyran-2-one]", "values": [{"measurement": "activity for inhibiting HMG-CoA reductase (in words)", "setting": "conclusion drawn from Table 2", "result": "effective activity"}, {"measurement": "Slope (rate of decline of OD340 within 5 min)", "setting": "final concentration 40 μg/mL, 37° C., pH6.8", "result": 7.344}, {"measurement": "inhibition at 40 µg/mL", "setting": "pH 6.8, final concentration 40 μg/mL, 37° C., pH6.8", "result": 26.3, "unit": "%"}]}]}
